Columns and labels:
[1] = test system: HCV replicon pSS-1_1a_NS5B_5′AsiSI_3′RsrII in Huh7 cells; assay: Transient replicon phenotypic assay (firefly luciferase), reference shuttle vector; type: cell-based, HCV genotype 1a (H77); conditions: Hepatitis C virus, Huh-7, 72 h, read-out: 2′-C-Me-C IC50
Experimental: (§1) Five micrograms of DNA plasmids were linearized by Sca I restriction enzyme (Roche). After overnight digestion at 37° C., the DNA was purified using Qiagen PCR purification kit. One microgram of linearized DNA was used for the in vitro transcription using T7 Mega script kit following manufacturer's protocol (Ambion). After 2 hours of incubation at 37° C., DNase treatment was performed for 30 minutes at 37° C. to remove the DNA template. In vitro transcribed RNA was then purified using NucAway Spin Column following manufacturer's protocol (Ambion).
(§2) Cured hepatoma cell line Huh7 were cultured at 37° C. in a humidified atmosphere with 5% CO2 in Dulbecco's Modified Eagle Medium (DMEM) supplemented with Glutamax™ and […] sodium pyruvate (Cat #10569-010). The medium was further supplemented with 10% (v/v) FBS (Cat #16000-036) and 1% (v/v) penicillin/streptomycin (Cat #15140-122). All reagents were from Invitrogen/Gibco.
(§3) Four million cured Huh7 cells were transfected with 5 μg of in vitro transcribed RNA using electroporation. […] Inhibitors were added 24 hours post-transfection in 3 fold dilutions at a final DMSO concentration of 1% and firefly luciferase reporter signal was read 72 hours after addition of inhibitors using the Luciferase Assay system (Promega, cat #E1501). […]

[2] = test system: HCV replicon containing NS5B from Clinical Isolate Pt 5 in Huh7 cells; assay: Transient replicon phenotypic assay (firefly luciferase), patient-derived NS5B Pt 5; type: cell-based, HCV genotype 1a; conditions: Hepatitis C virus, genotype 1a, Huh-7, 72 h, read-out: 2′-C-Me-C IC50
Experimental: as §1, §2, §3

[3] = test system: HCV replicon containing NS5B from Clinical Isolate Pt 6 in Huh7 cells; assay: Transient replicon phenotypic assay (firefly luciferase), patient-derived NS5B Pt 6; type: cell-based, HCV genotype 1a; conditions: Hepatitis C virus, genotype 1a, Huh-7, 72 h, read-out: 2′-C-Me-C IC50
Experimental: as §1, §2, §3

[4] = test system: HCV replicon containing NS5B from Clinical Isolate Pt 7 in Huh7 cells; assay: Transient replicon phenotypic assay (firefly luciferase), patient-derived NS5B Pt 7; type: cell-based, HCV genotype 1a; conditions: Hepatitis C virus, genotype 1a, Huh-7, 72 h, read-out: 2′-C-Me-C IC50
Experimental: as §1, §2, §3

[5] = test system: HCV replicon containing NS5B from Clinical Isolate Pt 8 in Huh7 cells; assay: Transient replicon phenotypic assay (firefly luciferase), patient-derived NS5B Pt 8; type: cell-based, HCV genotype 1a; conditions: Hepatitis C virus, genotype 1a, Huh-7, 72 h, read-out: 2′-C-Me-C IC50
Experimental: as §1, §2, §3

[6] = test system: HCV replicon containing NS5B from Clinical Isolate Pt 9 in Huh7 cells; assay: Transient replicon phenotypic assay (firefly luciferase), patient-derived NS5B Pt 9; type: cell-based, HCV genotype 1a; conditions: Hepatitis C virus, genotype 1a, Huh-7, 72 h, read-out: 2′-C-Me-C IC50
Experimental: as §1, §2, §3

[7] = test system: HCV replicons with NS5B from genotype-1a and genotype-1b clinical isolates in Huh-7 cells; assay: Sensitivity of treatment naive NS5B clinical isolates versus reference replicons (FIG. 3); type: cell-based, HCV genotype-1a and genotype-1b; conditions: pools of 96 clones per isolate, reference replicons Con1 (genotype-1b) and H77 (genotype-1a)
Experimental: Four million cured Huh7 cells were transfected with 5 μg of in vitro transcribed RNA using electroporation. Cells were then resuspended in 7.2 ml of DMEM containing 5% FBS and plated in 96-well plate at 50000 cells/well (in 90 μl final volume). Inhibitors were added 24 hours post-transfection in 3 fold dilutions at a final DMSO concentration of 1% and firefly luciferase reporter signal was read 72 hours after addition of inhibitors using the Luciferase Assay system (Promega, cat #E1501). The IC50 values were assessed as the inhibitor concentration at which a 50% reduction in the level of firefly luciferase reporter was observed as compared to the level of firefly luciferase signal without the addition of compounds. Results of studies testing the inhibitory effects of the compound, 2′-C-Methyl-Cytidine, on replication of pSS-1—1a_NS5B—5′AsiSI—3′RsrII and replicons with patient-derived NS5B sequences are shown in Table 2.
In order to test the sensitivity of HCV polymerase inhibitors across genetically diverse and treatment naive clinical isolates, the NS5B coding region from the isolates was amplified and cloned into the replicon shuttle replicons (clinical isolates from genotype-1a were cloned into pSS-1—1a—5′AsiSI_lacZAmC—3′RsrII and genotype-1b clinical isolates were cloned into pSC—1b—5′AsiSI_lacZAmC—3′RsrII). 96 molecular clones were pooled for each clinical isolate. […]

## C[C@@]1(O)[C@H](O)[C@@H](CO)O[C@H]1n1ccc(N)nc1=O [2′-C-Me-C, 2′-C-Methyl-Cytidine]
[1]
  IC50: 400 ± 30 nM
[2]
  IC50: 300 ± 50 nM
[3]
  IC50: 300 ± 40 nM
[4]
  IC50: 300 ± 50 nM
[5]
  IC50: 400 ± 70 nM
[6]
  IC50: 400 ± 60 nM

## C1=NNSc2ccccc21 [benzothiadiazine]
[7]
  potency across the NS5B clinical isolates as compared to the reference replicons: variable potencies

## O=C(O)c1cccs1 [thiophene-2-carboxylic acid]
[7]
  potency across the NS5B clinical isolates as compared to the reference replicons: variable potencies
